# Reference: US4195171A, “Derivatives of an antibiotic XK-62-2 and process for the production thereof” (Abbott Laboratories, priority 1975, dated 1980)
# Where two headings read alike, the source gives them in different places.
# Columns and labels:
# Assay in all cases: Antibacterial spectrum, MIC by agar dilution method
# Format in all cases: cell-based
# [1] = test system: Salmonella enteritidis G-14; settings: Salmonella enterica, pH 7.2, read-out: Minimum Inhibitory Concentration
# Source text: (§1) XK-62-2, 1-N-[L-(-)-α-hydroxy-γ-aminobutyryl] XK-62-2, Compounds (I-1), (I-2), (II-1) and (II-2) against various Gram-negative and Gram-positive bacteria determined by agar dilution method at pH 7.2.
# Sarcina lutea ATCC 9341 = settings: Micrococcus luteus, ATCC9341, pH 7.2, read-out: Minimum Inhibitory Concentration
# Source text: as §1
# [2] = test system: bacillus subtilis ATCC 6633; settings: ATCC6633, pH 7.2, read-out: Minimum Inhibitory Concentration
# Source text: as §1
# [3] = test system: Pseudomonas aeruginosa E-2
# Source text: as §1
# Escherichia coli Juhl = settings: pH 7.2, read-out: Minimum Inhibitory Concentration
# Source text: as §1
# Proteus mirabilis 1287 = settings: pH 7.2, read-out: Minimum Inhibitory Concentration
# Source text: as §1
# Proteus vulgaris 6897 = settings: pH 7.2, read-out: Minimum Inhibitory Concentration
# Source text: as §1
# [4] = test system: Pseudomonas aeruginosa No. 12; settings: pH 7.2, read-out: Minimum Inhibitory Concentration
# Source text: as §1
# Escherichia coli T-2 = settings: T2, pH 7.2, read-out: Minimum Inhibitory Concentration
# Source text: as §1
# Serratia sp T-55 = settings: T55, agar dilution, pH 7.2, read-out: Minimum Inhibitory Concentration
# Source text: as §1
# [5] = test system: Salmonella typhimurium E-9; settings: Salmonella enterica, pH 7.2, read-out: Minimum Inhibitory Concentration
# Source text: as §1
# [6] = test system: Pseudomonas aeruginosa KY 8563
# Source text: as §1
# ^7 produces gentamicin acetyltransferase Type III
# [7] = test system: Escherichia coli KY Z-338; settings: KYZ338, pH 7.2, strain produces gentamicin adenyltransferase, read-out: Minimum Inhibitory Concentration
# Source text: as §1
# (§2) ^4 produces gentamicin adenyltransferase
# [8] = test system: Klebsiella pneumoniae Y-58; settings: Y58, pH 7.2, strain produces gentamicin adenyltransferase, read-out: Minimum Inhibitory Concentration
# Source text: as §1, §2
# [9] = test system: Klebsiella pneumoniae Y-60; settings: Y60, pH 7.2, strain produces gentamicin adenyltransferase, read-out: Minimum Inhibitory Concentration
# Source text: as §1, §2
# Escherichia coli KY 8348 = settings: KY8348, pH 7.2, strain produces gentamicin acetyltransferase Type I, read-out: Minimum Inhibitory Concentration
# Source text: as §1
# (§3) ^2 produces gentamicin acetyltransferase Type I
# [10] = test system: Pseudomonas aeruginosa KY 8511; settings: KY8511, pH 7.2, strain produces gentamicin acetyltransferase Type I, read-out: Minimum Inhibitory Concentration
# Source text: as §1, §3
# [11] = test system: Pseudomonas aeruginosa KY Z-444
# Source text: as §1
# (§4) ^8 produces 6N-acetyltransferase Type III
# [12] = test system: Pseudomonas aeruginosa Z-445; settings: Z445, pH 7.2, strain produces 6N-acetyltransferase Type III, read-out: Minimum Inhibitory Concentration
# Source text: as §1, §4
# [13] = test system: Pseudomonas aeruginosa KY 8519; settings: KY8519, agar dilution, pH 7.2, strain produces neomycinkanamycin phosphotransferase Type I and Type II, read-out: Minimum Inhibitory Concentration
# Source text: as §1
# (§5) ^6 produces neomycinkanamycin phosphotransferase Type I and Type II
# [14] = test system: Pseudomonas aeruginosa KY 8512; settings: KY8512, pH 7.2, strain produces neomycinkanamycin phosphotransferase Type I and Type II, read-out: Minimum Inhibitory Concentration
# Source text: as §1, §5
# Providencia sp. 164 = settings: pH 7.2, strain produces gentamicin acetyltransferase Type II, read-out: Minimum Inhibitory Concentration
# Source text: as §1
# ^9 produces gentamicin acetyltransferase Type II
# [15] = test system: Pseudomonas aeruginosa KY 8516
# Source text: as §1
# (§6) ^1 produces kanamycin acetyltransferase
# [16] = test system: Pseudomonas aeruginosa KY 8510
# Source text: as §1, §6
# [17] = test system: Serratia marcescens POE 1065
# Source text: as §1, §6
# [18] = test system: Escherichia coli KY Z-343; settings: KYZ343, pH 7.2, strain produces kanamycin acetyltransferase, read-out: Minimum Inhibitory Concentration
# Source text: as §1, §6
# Escherichia coli KY 8320 = settings: KY8320, pH 7.2, strain produces neomycinkanamycin phosphotransferase Type I, read-out: Minimum Inhibitory Concentration
# Source text: as §1
# (§7) ^3 produces neomycinkanamycin phosphotransferase Type I
# [19] = test system: Pseudomonas aeruginosa KY 8518; settings: KY8518, pH 7.2, strain produces neomycinkanamycin phosphotransferase Type I, read-out: Minimum Inhibitory Concentration
# Source text: as §1, §7
# Escherichia coli KY 8349 = settings: KY8349, pH 7.2, strain produces neomycinkanamycin phosphotransferase Type I, read-out: Minimum Inhibitory Concentration
# Source text: as §1, §7
# Escherichia coli KY 8321 = settings: KY8321, pH 7.2, strain produces gentamicin adenyltransferase and neomycinkanamycin phosphotransferase Type II, read-out: Minimum Inhibitory Concentration
# Source text: as §1
# ^5 produces gentamicin adenyltransferase and neomycinkanamycin
# phosphotransferase Type II
# [20] = KY8563, agar dilution, pH 7.2, strain produces gentamicin acetyltransferase Type III, read-out: Minimum Inhibitory Concentration
# [21] = KYZ444, agar dilution, pH 7.2, strain produces 6N-acetyltransferase Type III, read-out: Minimum Inhibitory Concentration
# [22] = KY8516, agar dilution, pH 7.2, strain produces kanamycin acetyltransferase, read-out: Minimum Inhibitory Concentration
# [23] = KY8510, agar dilution, pH 7.2, strain produces kanamycin acetyltransferase, read-out: Minimum Inhibitory Concentration
# [24] = POE1065, agar dilution, pH 7.2, strain produces kanamycin acetyltransferase, read-out: Minimum Inhibitory Concentration
# [25] = E2, pH 7.2, read-out: Minimum Inhibitory Concentration
SMILES,MIC (Sarcina lutea ATCC 9341) [µg/mL],MIC [2] [µg/mL],MIC (Proteus mirabilis 1287) [µg/mL],MIC (Proteus vulgaris 6897) [µg/mL],MIC [4] [µg/mL],MIC (Escherichia coli T-2) [µg/mL],MIC (Serratia sp T-55) [µg/mL],MIC [5] [µg/mL],MIC [7] [µg/mL],MIC [8] [µg/mL],MIC [9] [µg/mL],MIC (Escherichia coli KY 8348) [µg/mL],MIC [10] [µg/mL],MIC [12] [µg/mL],MIC [13] [µg/mL],MIC [14] [µg/mL],MIC (Providencia sp. 164) [µg/mL],MIC [18] [µg/mL],MIC (Escherichia coli KY 8320) [µg/mL],MIC [19] [µg/mL],also measured
"CNCC1CCC(N)C(OC2C(N)CC(NC(=O)C(O)CCN)C(OC3OCC(C)(O)C(NC)C3O)C2O)O1 (single isomer, unassigned) [1-N-[L-(-)-α-hydroxy-γ-aminobutyryl] XK-62-2, reference compound]",0.2,0.1,12.5,1.56,0.4,0.4,0.78,0.2,0.2,0.2,0.2,0.1,1.56,6.25,6.25,1.56,6.25,0.1,0.2,1.56,"MIC ([1]; agar dilution): 3.12 µg/mL; MIC ([3]; E2, agar dilution, pH 7.2, read-out: Minimum Inhibitory Concentration): 3.12 µg/mL; MIC (Escherichia coli Juhl; agar dilution): 0.4 µg/mL; MIC [6, 20]: 6.25 µg/mL; MIC [11, 21]: 1.56 µg/mL; MIC [15, 22]: 3.12 µg/mL; MIC [16, 23]: 3.12 µg/mL; MIC [17, 24]: 0.78 µg/mL; MIC (Escherichia coli KY 8349): 0.1 µg/mL; MIC (Escherichia coli KY 8321): 0.2 µg/mL"
"CC1(O)COC(OC2C(NC(=O)C(O)CCN)CC(N)C(OC3OC(CN)CCC3N)C2O)C(O)C1N (single isomer, unassigned) [Compound I-2, 3""-N, 6'-N-didemethyl-1-N-[L-(-)-α-hydroxy-γ-aminobutyryl] XK-62-2]",0.78,0.1,12.5,3.12,0.4,0.78,3.12,0.4,0.4,0.78,0.78,0.4,0.78,6.25,3.12,0.78,6.25,0.2,0.78,0.78,"MIC ([1]; agar dilution): 12.5 µg/mL; MIC [3, 25]: 1.56 µg/mL; MIC (Escherichia coli Juhl): 1.56 µg/mL; MIC [6, 20]: 3.12 µg/mL; MIC ([11]; KYZ444, pH 7.2, read-out: Minimum Inhibitory Concentration): 1.56 µg/mL; MIC [15, 22]: 25 µg/mL; MIC [16, 23]: 12.5 µg/mL; MIC [17, 24]: 25 µg/mL; MIC (Escherichia coli KY 8349): 0.4 µg/mL; MIC (Escherichia coli KY 8321): 0.78 µg/mL"
"CNCC1CCC(N)C(OC2C(N)CC(NC(=O)C(O)CCN)C(OC3OCC(C)(O)C(N)C3O)C2O)O1 (single isomer, unassigned) [II-2, 3""-N-demethyl-1-N-[L-(-)-α-hydroxy-γ-aminobutyryl] XK-62-2]",1.56,0.2,12.5,6.25,0.78,0.78,1.56,0.78,0.4,0.4,0.78,0.4,1.56,6.25,6.25,1.56,12.5,0.2,0.78,1.56,"MIC [1]: 3.12 µg/mL; MIC [3, 25]: 3.12 µg/mL; MIC (Escherichia coli Juhl; agar dilution): 1.56 µg/mL; MIC ([6]; KY8563, pH 7.2, read-out: Minimum Inhibitory Concentration): 3.12 µg/mL; MIC [11, 21]: 1.56 µg/mL; MIC ([15]; KY8516, pH 7.2, read-out: Minimum Inhibitory Concentration): 3.12 µg/mL; MIC ([16]; KY8510, pH 7.2, read-out: Minimum Inhibitory Concentration): 3.12 µg/mL; MIC ([17]; POE1065, pH 7.2, read-out: Minimum Inhibitory Concentration): 3.12 µg/mL; MIC (Escherichia coli KY 8349): 0.4 µg/mL; MIC (Escherichia coli KY 8321): 0.78 µg/mL"
